Earlier results on one compound are cited in patent US6818391B2, “Glutamate transporters” (The Regents of the University of California, priority 2000, dated 2004).

The data set has as its system synaptic vesicles. Conditions: read-out: Km of vesicular glutamate transport; cited from earlier work.

SMILES strings stand for the structures.

By Km is commonly meant the concentration of substrate that gives half-maximal velocity. With `N[C@@H](CCC(=O)O)C(=O)O` [L-Glutamate], the Km was about 1000 µM.
